Experimental data reported in patent US10781224B2, “Bis(oxymethyl)phosphinic acid and biogenic metal salts thereof as regulators of plant growth and development” (priority 2016, dated 2020).

Columns and labels:
Format in all cases: in vivo
[1] = system: corn (Krasnodar 385 MV variety); test: Corn seed treatment with BHMPA salts: germination energy and germination rate
Method in brief: (§1)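 Corn, winter wheat and rice seeds (50 per dish, on filter paper) were soaked for 1 h in BHMPA or its metal salts at 1·10^−6-1·10^−12%, with water as control. Germination energy was read on day 4 and germination rate on day 8 for wheat and day 7 for rice and corn, following GOST 12038-84, as the mean of four replicates.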

[2] = system: winter wheat (Vershin variety); test: Winter wheat seed treatment with BHMPA salts: germination energy and germination rate
Method in brief: as §1

[3] = system: winter wheat (Vershin variety); test: Winter wheat seed treatment with BHMPA salts: germinating power (length and mass of roots and sprouts)
Method in brief: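 Seeds (50 per Petri dish on two layers of filter paper) soaked 1 h in BHMPA or its Ca, Mg, Na, Co, Mn, Cu or Zn salts at 1·10^−6-1·10^−12%, with water controls. Germination energy read on day 4, germination on day 8 (wheat) or day 7 (rice, corn), as % means of four replicates. Germinating power taken as root and sprout length plus wet and dry mass per 100 seedlings.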

[4] = comparative study vs Melaphen, 1·10^−9% solution
[5] = winter wheat Vershin, 1·10^−6% solution
[6] = winter wheat Vershin, 1·10^−7% solution
[7] = winter wheat Vershin, 1·10^−8% solution
[8] = winter wheat Vershin, 1·10^−9% solution
[9] = winter wheat Vershin, 1·10^−10% solution
[10] = winter wheat Vershin, 1·10^−11% solution
[11] = winter wheat Vershin, 1·10^−12% solution
[12] = winter wheat, comparative study vs Melaphen, 1·10^−11% solution
[13] = comparative study, 1·10^−11% solution

O=P([O-])(CO)CO.O=P([O-])(CO)CO.[Mg+2] [Mg-salt, Magnesium BHMPA Salt]
Germination energy ([1]; 1·10^−6% solution): 82.3% | Germination rate ([1]; 1·10^−6% solution): 84.7% | Germination energy ([1]; 1·10^−7% solution): 85.3% | Germination rate ([1]; 1·10^−7% solution): 89.0% | Germination energy ([1]; 1·10^−8% solution): 87.7% | Germination rate ([1]; 1·10^−8% solution): 93.3% | Germination energy ([1]; 1·10^−9% solution): 89.71% | Germination rate ([1]; 1·10^−9% solution): 95.8% | Germination energy ([1]; 1·10^−9% solution, listed as Mg): 89.7% | Germination energy ([1]; 1·10^−10% solution): 90.3% | Germination rate ([1]; 1·10^−10% solution): 93.7% | Germination energy ([1]; 1·10^−11% solution): 88.0% | Germination rate ([1]; 1·10^−11% solution): 91.7% | Germination energy ([1]; 1·10^−12% solution): 86.7% | Germination rate ([1]; 1·10^−12% solution): 90.8% | Germination energy [1, 4]: 86.0% | Germination rate [1, 4]: 95.7% | Germination energy [2, 5]: 85.0% | Germination rate [2, 5]: 89.3% | Germination energy [2, 6]: 88.4% | Germination rate [2, 6]: 92.0% | Germination energy [2, 7]: 88.8% | Germination rate [2, 7]: 92.0% | Germination energy [2, 8]: 89.3% | Germination rate [2, 8]: 93.0% | Germination energy [2, 9]: 89.9% | Germination rate [2, 9]: 93.3% | Germination energy [2, 10]: 93.1% | Germination rate [2, 10]: 96.0% | Germination energy [2, 11]: 90.0% | Germination rate [2, 11]: 93.3% | Germination energy [2, 12]: 93.3% | Germination rate [2, 12]: 96.7% | Length, root ([3]; 1·10^−6% solution): 9.2 cm | Length, root, + % to control ([3]; 1·10^−6% solution): −1% | Length, sprout ([3]; 1·10^−6% solution): 7.1 cm | Length, sprout, + % to control ([3]; 1·10^−6% solution): −1% | Mass, dry, root ([3]; 1·10^−6% solution): 0.57 g/100 plantlings | Mass, dry, root, + % to control ([3]; 1·10^−6% solution): −2% | Mass, dry, sprout ([3]; 1·10^−6% solution): 0.65 g/100 plantlings | Mass, dry, sprout, + % to control ([3]; 1·10^−6% solution): −15% | Mass, wet, root ([3]; 1·10^−6% solution): 2.55 g/100 plantlings | Mass, wet, root, + % to control ([3]; 1·10^−6% solution): −1% | Mass, wet, sprout ([3]; 1·10^−6% solution): 5.45 g/100 plantlings | Mass, wet, sprout, + % to control ([3]; 1·10^−6% solution): −2.5% | germinating power results vs control ([3]; 1·10^−6% solution): lower than those of the control | Length, root ([3]; 1·10^−7% solution): 10.0 cm | Length, root, + % to control ([3]; 1·10^−7% solution): 7.5% | Length, sprout ([3]; 1·10^−7% solution): 7.2 cm | Length, sprout, + % to control ([3]; 1·10^−7% solution): 0% | Mass, dry, root ([3]; 1·10^−7% solution): 0.61 g/100 plantlings | Mass, dry, root, + % to control ([3]; 1·10^−7% solution): 5% | Mass, dry, sprout ([3]; 1·10^−7% solution): 0.79 g/100 plantlings | Mass, dry, sprout, + % to control ([3]; 1·10^−7% solution): 2.6% | Mass, wet, root ([3]; 1·10^−7% solution): 2.68 g/100 plantlings | Mass, wet, root, + % to control ([3]; 1·10^−7% solution): 3% | Mass, wet, sprout ([3]; 1·10^−7% solution): 5.63 g/100 plantlings | Mass, wet, sprout, + % to control ([3]; 1·10^−7% solution): 0.7% | Length, root ([3]; 1·10^−8% solution): 10.0 cm | Length, root, + % to control ([3]; 1·10^−8% solution): 7.5% | Length, sprout ([3]; 1·10^−8% solution): 7.4 cm | Length, sprout, + % to control ([3]; 1·10^−8% solution): 3% | Mass, dry, root ([3]; 1·10^−8% solution): 0.62 g/100 plantlings | Mass, dry, root, + % to control ([3]; 1·10^−8% solution): 7% | Mass, dry, sprout ([3]; 1·10^−8% solution): 0.80 g/100 plantlings | Mass, dry, sprout, + % to control ([3]; 1·10^−8% solution): 4% | Mass, wet, root ([3]; 1·10^−8% solution): 2.97 g/100 plantlings | Mass, wet, root, + % to control ([3]; 1·10^−8% solution): 15.5% | Mass, wet, sprout ([3]; 1·10^−8% solution): 5.79 g/100 plantlings | Mass, wet, sprout, + % to control ([3]; 1·10^−8% solution): 3.6% | Length, root ([3]; 1·10^−9% solution): 10.9 cm | Length, root, + % to control ([3]; 1·10^−9% solution): 17% | Length, sprout ([3]; 1·10^−9% solution): 7.5 cm | Length, sprout, + % to control ([3]; 1·10^−9% solution): 4% | Mass, dry, root ([3]; 1·10^−9% solution): 0.63 g/100 plantlings | Mass, dry, root, + % to control ([3]; 1·10^−9% solution): 8.6% | Mass, dry, sprout ([3]; 1·10^−9% solution): 0.81 g/100 plantlings | Mass, dry, sprout, + % to control ([3]; 1·10^−9% solution): 5% | Mass, wet, root ([3]; 1·10^−9% solution): 2.98 g/100 plantlings | Mass, wet, root, + % to control ([3]; 1·10^−9% solution): 16% | Mass, wet, sprout ([3]; 1·10^−9% solution): 5.81 g/100 plantlings | Mass, wet, sprout, + % to control ([3]; 1·10^−9% solution): 4% | Length, root ([3]; 1·10^−10% solution): 11.3 cm | Length, root, + % to control ([3]; 1·10^−10% solution): 21.5% | Length, sprout ([3]; 1·10^−10% solution): 7.5 cm | Length, sprout, + % to control ([3]; 1·10^−10% solution): 4% | Mass, dry, root ([3]; 1·10^−10% solution): 0.66 g/100 plantlings | Mass, dry, root, + % to control ([3]; 1·10^−10% solution): 24% | Mass, dry, sprout ([3]; 1·10^−10% solution): 0.83 g/100 plantlings | Mass, dry, sprout, + % to control ([3]; 1·10^−10% solution): 8% | Mass, wet, root ([3]; 1·10^−10% solution): 2.94 g/100 plantlings | Mass, wet, root, + % to control ([3]; 1·10^−10% solution): 14% | Mass, wet, sprout ([3]; 1·10^−10% solution): 5.84 g/100 plantlings | Mass, wet, sprout, + % to control ([3]; 1·10^−10% solution): 4.5% | Length, root ([3]; 1·10^−11% solution): 12.2 cm | Length, root, + % to control ([3]; 1·10^−11% solution): 31% | Length, sprout ([3]; 1·10^−11% solution): 7.7 cm | Length, sprout, + % to control ([3]; 1·10^−11% solution): 7% | Mass, dry, root ([3]; 1·10^−11% solution): 0.74 g/100 plantlings | Mass, dry, root, + % to control ([3]; 1·10^−11% solution): 27.5% | Mass, dry, sprout ([3]; 1·10^−11% solution): 1.07 g/100 plantlings | Mass, dry, sprout, + % to control ([3]; 1·10^−11% solution): 39% | Mass, wet, root ([3]; 1·10^−11% solution): 3.41 g/100 plantlings | Mass, wet, root, + % to control ([3]; 1·10^−11% solution): 33% | Mass, wet, sprout ([3]; 1·10^−11% solution): 5.94 g/100 plantlings | Mass, wet, sprout, + % to control ([3]; 1·10^−11% solution): 6% | Length, root ([3]; 1·10^−12% solution): 12.1 cm | Length, root, + % to control ([3]; 1·10^−12% solution): 30% | Length, sprout ([3]; 1·10^−12% solution): 7.6 cm | Length, sprout, + % to control ([3]; 1·10^−12% solution): 5.5% | Mass, dry, root ([3]; 1·10^−12% solution): 0.69 g/100 plantlings | Mass, dry, root, + % to control ([3]; 1·10^−12% solution): 19% | Mass, dry, sprout ([3]; 1·10^−12% solution): 0.84 g/100 plantlings | Mass, dry, sprout, + % to control ([3]; 1·10^−12% solution): 9% | Mass, wet, root ([3]; 1·10^−12% solution): 3.11 g/100 plantlings | Mass, wet, root, + % to control ([3]; 1·10^−12% solution): 21% | Mass, wet, sprout ([3]; 1·10^−12% solution): 5.86 g/100 plantlings | Mass, wet, sprout, + % to control ([3]; 1·10^−12% solution): 5% | Length, root [3, 13]: 10.0 cm | Length, root, + % to control [3, 13]: 15% | Length, sprout [3, 13]: 7.2 cm | Length, sprout, + % to control [3, 13]: 16% | Mass, dry, root [3, 13]: 0.69 g/100 plantlings | Mass, dry, root, + % to control [3, 13]: 11% | Mass, dry, sprout [3, 13]: 0.57 g/100 plantlings | Mass, dry, sprout, + % to control [3, 13]: 12% | Mass, wet, root [3, 13]: 5.76 g/100 plantlings | Mass, wet, root, + % to control [3, 13]: 59% | Mass, wet, sprout [3, 13]: 5.04 g/100 plantlings | Mass, wet, sprout, + % to control [3, 13]: 27%
